From US7547710B2, “Fused heterocyclic compounds as peptidase inhibitors” (Takeda Pharmaceutical Company Limited, priority 2002, dated 2009)

target: T1, dipeptidyl peptidase IV in rat plasma (Rattus norvegicus, UniProt P14740); test: Determination of dipeptidyl peptidase IV inhibitory activity in rat plasma; format: biochemical; conditions: SD rat plasma, substrate Gly-Pro-p-NA, 30° C., absorbance 405 nm after 0 hr. and 1 hr.
T1 construct: from tissue; host or cells: SD rat blood plasma
Procedure: The reaction was carried out according to the method of Raymond et al. (Diabetes, vol. 47, pp. 1253-1258, 1998) using a 96 well flat-bottomed plate at 30° C. An N,N-dimethylformamide solution (1 μl) containing the test compound was added to a mixture of water (69 μl), 1 M Tris-hydrochloride buffer (10 μl, pH 7.5) and 1 mM aqueous Gly-Pro-p-NA solution (100 μl) to prepare a mixed solution. Plasma (20 μl) prepared from blood of SD rat by a conventional method was added to the above-mentioned mixed solution and the enzyme reaction was started at 30° C. The absorbance after 0 hr. and 1 hr. was measured using a microplate reader at a wavelength of 405 nm and an increase (ΔODs) was determined. At the same time, an increase (ΔODc) in absorbance of the reaction mixture without the test compound, and an increase (ΔODb) in absorbance of the reaction mixture without the test compound and the enzyme were determined and percent inhibition of dipeptidyl peptidase IV enzyme activity was calculated from the following formula: {1−[(ΔODs−ΔODb)/(ΔODc−ΔODb)]}×100
The dipeptidyl peptidase IV inhibitory activity of the test compound group is expressed in IC50 value (μM) and shown in Table 2.

T1 sequence (P14740 37-767 limits assumed): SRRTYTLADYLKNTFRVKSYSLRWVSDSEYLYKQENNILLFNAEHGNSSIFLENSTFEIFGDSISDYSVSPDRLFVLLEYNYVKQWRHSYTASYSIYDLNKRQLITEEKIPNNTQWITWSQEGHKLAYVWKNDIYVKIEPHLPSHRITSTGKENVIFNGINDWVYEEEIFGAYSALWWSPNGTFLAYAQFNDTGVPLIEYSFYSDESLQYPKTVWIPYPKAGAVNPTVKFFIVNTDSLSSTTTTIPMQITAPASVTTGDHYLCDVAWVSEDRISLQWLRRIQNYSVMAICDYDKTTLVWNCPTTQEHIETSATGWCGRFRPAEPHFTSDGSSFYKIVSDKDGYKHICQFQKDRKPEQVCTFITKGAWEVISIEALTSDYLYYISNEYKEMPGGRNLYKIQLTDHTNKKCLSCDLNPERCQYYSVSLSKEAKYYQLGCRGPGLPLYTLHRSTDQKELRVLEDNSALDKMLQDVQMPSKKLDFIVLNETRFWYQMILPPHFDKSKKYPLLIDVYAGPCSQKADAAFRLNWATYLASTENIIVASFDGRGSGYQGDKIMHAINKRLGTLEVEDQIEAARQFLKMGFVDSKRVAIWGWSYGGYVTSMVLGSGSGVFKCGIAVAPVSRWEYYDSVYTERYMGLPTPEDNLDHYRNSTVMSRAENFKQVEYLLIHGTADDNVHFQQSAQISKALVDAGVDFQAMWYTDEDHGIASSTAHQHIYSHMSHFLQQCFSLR

| IC50 [µM] | Structure (SMILES) |
| --- | --- |
| 1.6 | CC(C)Cc1nc2ccc(Cl)cc2c(-c2ccccc2)c1CN [Example 1, (6-chloro-2-isobutyl-4-phenylquinolin-3-yl)methylamine] |

target: T2, Caco-2-derived dipeptidyl peptidase IV (Homo sapiens, UniProt P27487); test: Determination of Caco-2-derived dipeptidyl peptidase IV inhibitory activity; format: biochemical; conditions: Caco-2 crude enzyme solution, substrate Gly-Pro-p-NA, 37° C., absorbance 405 nm after 0 hr. and 3 hrs.
T2 construct: A dipeptidyl peptidase IV crude enzyme solution was prepared from cultured Caco-2 (ATCC HTB-37) cells; endogenous in cells; host or cells: Caco-2 (ATCC HTB-37); Triton X-100 extract, Sephadex G-200 fractions
Procedure: The enzyme activity of dipeptidyl peptidase IV present in human colonic adenocarcinoma-derived cell line Caco-2 cell membrane has been already reported by Yong S. Chung et al. (Cancer Research, vol. 45, pp. 2976-2982, 1985).
A dipeptidyl peptidase IV crude enzyme solution was prepared from cultured Caco-2 (ATCC HTB-37) cells. The Caco-2 cells were cultured in D-MEM medium (manufactured by Nissui Pharmaceutical Co., Ltd.) containing 10% FBS (fetal bovine serum (manufactured by GIBCO)). […]
An N,N-dimethylformamide solution (5 μl) containing the test compound was added to a mixture of water (25 μl), 1M Tris-hydrochloride buffer (10 μl, pH 7.5) and 1 mM aqueous glycylprolyl-p-nitroanilide (Gly-Pro-p-NA; manufactured by Backem AG) solution (50 μl) to prepare a mixed solution. […] The absorbance after 0 hr. and 3 hrs. was measured using a microplate reader (Multiskan Bichromatic; manufactured by Labsystems) at a wavelength of 405 nm and an increase (ΔODs) was determined. At the same time, an increase (ΔODc) in absorbance of the reaction mixture without the test compound, and an increase (ΔODb) in absorbance of the reaction mixture without the test compound and the enzyme were determined and percent inhibition of dipeptidyl peptidase IV enzyme activity was calculated from the following formula: {1−[(ΔODs−ΔODb)/(ΔODc−ΔODb)]}×100 […]

T2 sequence (P27487 whole entry): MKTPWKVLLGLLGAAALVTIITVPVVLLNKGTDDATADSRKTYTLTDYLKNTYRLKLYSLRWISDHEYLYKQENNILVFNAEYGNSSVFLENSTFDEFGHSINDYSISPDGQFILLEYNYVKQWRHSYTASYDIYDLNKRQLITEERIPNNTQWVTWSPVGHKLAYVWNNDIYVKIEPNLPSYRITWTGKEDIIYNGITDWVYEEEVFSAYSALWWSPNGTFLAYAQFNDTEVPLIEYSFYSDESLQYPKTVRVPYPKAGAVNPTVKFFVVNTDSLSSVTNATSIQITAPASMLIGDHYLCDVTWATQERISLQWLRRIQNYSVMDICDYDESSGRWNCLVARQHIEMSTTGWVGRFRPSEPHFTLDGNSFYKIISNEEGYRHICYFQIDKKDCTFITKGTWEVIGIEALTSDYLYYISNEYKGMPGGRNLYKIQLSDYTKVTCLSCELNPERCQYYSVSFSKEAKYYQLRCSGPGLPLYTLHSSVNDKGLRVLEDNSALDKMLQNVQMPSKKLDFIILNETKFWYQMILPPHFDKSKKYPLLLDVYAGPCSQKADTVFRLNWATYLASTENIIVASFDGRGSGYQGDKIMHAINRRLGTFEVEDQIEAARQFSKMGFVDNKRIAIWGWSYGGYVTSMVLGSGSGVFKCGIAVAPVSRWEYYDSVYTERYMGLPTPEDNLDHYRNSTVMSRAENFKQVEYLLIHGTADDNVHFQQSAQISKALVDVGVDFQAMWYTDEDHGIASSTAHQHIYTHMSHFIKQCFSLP

| IC50 [µM] | Structure (SMILES) |
| --- | --- |
| 0.71 | CC(C)Cc1nc2ccc(Cl)cc2c(-c2ccccc2)c1CN [Example 1, (6-chloro-2-isobutyl-4-phenylquinolin-3-yl)methylamine] |

system: not given; test: not given; conditions: not given

| Structure (SMILES) | melting point [°C] |
| --- | --- |
| CC(C)Cc1nc2ccc(Cl)cc2c(-c2ccccc2)c1CN [Example 1, (6-chloro-2-isobutyl-4-phenylquinolin-3-yl)methylamine] | 114 to 116 |
| CC(C)Cc1nc2ccc(C#N)cc2c(-c2ccccc2)c1CN [Example 3, 3-(aminomethyl)-2-isobutyl-4-phenylquinoline-6-carbonitrile] | 128 to 130 |
| COc1ccc2nc(CC(C)C)c(CN)c(-c3ccccc3)c2c1 [Example 25, (2-isobutyl-6-methoxy-4-phenylquinolin-3-yl)methylamine] | 73 to 76 |
| CC(C)(C)Cc1nc2ccc(OCC(N)=O)cc2c(-c2ccccc2)c1CN [Example 40, 2-{[3-(aminomethyl)-2-(2,2-dimethylpropyl)-4-phenylquinolin-6-yl]oxy}acetamide] | 152 to 154 |
| NCc1c(CC2CCCC2)nc2ccc(OCC(N)=O)cc2c1-c1ccccc1 [Example 42, 2-{[3-(aminomethyl)-2-(cyclopentylmethyl)-4-phenylquinolin-6-yl]oxy}acetamide] | 159 to 160 |

Continued, values first:

| melting point [°C] | Structure (SMILES) |
| --- | --- |
| 129 to 130 | CC(C)Cc1nc2ccc(Br)cc2c(-c2ccccc2)c1CN [Example 2, (6-bromo-2-isobutyl-4-phenylquinolin-3-yl)methylamine] |
| 138 to 139 | COC(=O)c1ccc2nc(CC(C)C)c(CN)c(-c3ccccc3F)c2c1 [Example 29, Methyl 3-(aminomethyl)-4-(2-fluorophenyl)-2-isobutylquinoline-6-carboxylate] |
| 119 to 120 | Cc1ccc(-c2c(CN)c(CC(C)C)nc3ccc(OCc4ccccc4)cc23)cc1 [Example 30, [6-(benzyloxy)-2-isobutyl-4-(4-methylphenyl)quinolin-3-yl]methylamine] |
| 156 to 157 | CC(C)Cc1nc2ccc(OCC(N)=O)cc2c(-c2cccs2)c1CN [Example 33, 2-{[3-(aminomethyl)-2-isobutyl-4-thien-2-ylquinolin-6-yl]oxy}acetamide] |
| 106 to 109 | CC(C)Cc1nc2ccc(OCC(N)=O)cc2c(-c2cccc(F)c2)c1CN [Example 38, 2-{[3-(aminomethyl)-4-(3-fluorophenyl)-2-isobutylquinolin-6-yl]oxy}acetamide] |
